According to ChEMBL document CHEMBL1681651, “A broad spectrum anticancer nucleoside with selective toxicity against human colon cells in vitro” (2011):

Columns and labels:
Assay type in all cases: functional
[1] = tested on: HOP-62; assay: Growth inhibition of human HOP62 cells assessed as cell growth at 1 uM after 48 hrs by SRB assay; conditions: HOP-62, 48 h, read-out: Activity
[2] = tested on: SNB-75; assay: Growth inhibition of human SNB75 cells assessed as cell growth at 100 uM after 48 hrs by SRB assay; conditions: SNB-75, 48 h, read-out: Activity
[3] = tested on: HT-29; assay: Growth inhibition of human HT-29 cells assessed as cell growth at 10 uM after 48 hrs by SRB assay; conditions: HT-29, 48 h, read-out: Activity
[4] = tested on: HCC 2998; assay: Growth inhibition of human HCC2998 cells assessed as cell growth at 0.1 uM after 48 hrs by SRB assay; conditions: HCC 2998, 48 h, read-out: Activity
[5] = tested on: SK-OV-3; assay: Growth inhibition of human SKOV3 cells assessed as cell growth at 10 uM after 48 hrs by SRB assay; conditions: SK-OV-3, 48 h, read-out: Activity
[6] = tested on: HT-29; assay: Growth inhibition of human HT-29 cells after 48 hrs by […] growth inhibition assay; conditions: HT-29, 48 h
[7] = tested on: SK-OV-3; assay: Growth inhibition of human SKOV3 cells assessed as cell growth at 1 uM after 48 hrs by SRB assay; conditions: SK-OV-3, 48 h, read-out: Activity
[8] = tested on: HOP-92; assay: Growth inhibition of human HOP92 cells assessed as cell growth at 100 uM after 48 hrs by SRB assay; conditions: HOP-92, 48 h, read-out: Activity
[9] = tested on: IGROV-1; assay: Growth inhibition of human IGROV1 cells assessed as cell growth at 100 uM after 48 hrs by SRB assay; conditions: IGROV-1, 48 h, read-out: Activity
[10] = tested on: MDA-MB-231; assay: Growth inhibition of human MDA-MB-231 cells assessed as cell growth at 1 uM after 48 hrs by SRB assay; conditions: MDA-MB-231, 48 h, read-out: Activity
[11] = tested on: SN12C; assay: Growth inhibition of human SN12C cells assessed as cell growth at 1 mM after 48 hrs by SRB assay; conditions: read-out: Activity
[12] = tested on: Malme-3M; assay: Growth inhibition of human MALME-3M cells assessed as cell growth at 10 uM after 48 hrs by SRB assay; conditions: read-out: Activity
[13] = tested on: U-251; assay: Growth inhibition of human U251 cells assessed as cell growth at 0.1 uM after 48 hrs by SRB assay; conditions: U-251, 48 h, read-out: Activity
[14] = tested on: COLO 205; assay: Growth inhibition of human COLO205 cells assessed as cell growth at 1 mM after 48 hrs by SRB assay; conditions: COLO 205, 48 h, read-out: Activity
[15] = tested on: MDA-MB-435; assay: Growth inhibition of human MDA-MB-435 cells assessed as cell growth at 1 uM after 48 hrs by SRB assay; conditions: MDA-MB-435, 48 h, read-out: Activity
[16] = tested on: OVCAR-8; assay: Growth inhibition of human OVCAR8 cells assessed as cell growth at 1 mM after 48 hrs by SRB assay; conditions: OVCAR-8, 48 h, read-out: Activity
[17] = tested on: COLO 205; assay: Growth inhibition of human COLO205 cells assessed as cell growth at 0.1 uM after 48 hrs by SRB assay; conditions: COLO 205, 48 h, read-out: Activity
[18] = tested on: HOP-62; assay: Growth inhibition of human HOP62 cells assessed as cell growth at 10 uM after 48 hrs by SRB assay; conditions: HOP-62, 48 h, read-out: Activity
[19] = tested on: SK-OV-3; assay: Growth inhibition of human SKOV3 cells after 48 hrs by […] growth inhibition assay; conditions: SK-OV-3, 48 h
[20] = tested on: A498; assay: Growth inhibition of human A498 cells assessed as cell growth at 1 mM after 48 hrs by SRB assay; conditions: A498, 48 h, read-out: Activity
[21] = tested on: T47D; assay: Growth inhibition of human T47D cells assessed as cell growth at 1 mM after 48 hrs by SRB assay; conditions: read-out: Activity
[22] = tested on: NCI-H23; assay: Growth inhibition of human NCI-H23 cells assessed as cell growth at 0.1 uM after 48 hrs by SRB assay; conditions: NCI-H23, 48 h, read-out: Activity
[23] = tested on: NCI-H23; assay: Growth inhibition of human NCI-H23 cells assessed as cell growth at 100 uM after 48 hrs by SRB assay; conditions: NCI-H23, 48 h, read-out: Activity
[24] = tested on: SNB-75; assay: Growth inhibition of human SNB75 cells assessed as cell growth at 1 mM after 48 hrs by SRB assay; conditions: SNB-75, 48 h, read-out: Activity
[25] = tested on: 786-0; assay: Growth inhibition of human 786-0 cells assessed as cell growth at 0.1 uM after 48 hrs by SRB assay; conditions: 786-0, 48 h, read-out: Activity
[26] = tested on: NCI-H226; assay: Growth inhibition of human NCI-H226 cells after 48 hrs by […] growth inhibition assay; conditions: NCI-H226, 48 h
[27] = tested on: NCI/ADR-RES; assay: Growth inhibition of human NCI/ADR-RES cells assessed as cell growth at 100 uM after 48 hrs by SRB assay; conditions: read-out: Activity
[28] = tested on: CAKI-1; assay: Growth inhibition of human Caki1 cells after 48 hrs by […] growth inhibition assay; conditions: CAKI-1, 48 h
[29] = tested on: SK-OV-3; assay: Growth inhibition of human SKOV3 cells assessed as cell growth at 0.1 uM after 48 hrs by SRB assay; conditions: SK-OV-3, 48 h, read-out: Activity
[30] = tested on: OVCAR-5; assay: Growth inhibition of human OVCAR5 cells assessed as cell growth at 0.1 uM after 48 hrs by SRB assay; conditions: OVCAR-5, 48 h, read-out: Activity
[31] = tested on: MDA-MB-435; assay: Growth inhibition of human MDA-MB-435 cells assessed as cell growth at 100 uM after 48 hrs by SRB assay; conditions: MDA-MB-435, 48 h, read-out: Activity
[32] = tested on: NCI-H460; assay: Growth inhibition of human NCI-H460 cells assessed as cell growth at 100 uM after 48 hrs by SRB assay; conditions: NCI-H460, 48 h, read-out: Activity
[33] = tested on: NCI-H522; assay: Growth inhibition of human NCI-H522 cells assessed as cell growth at 100 uM after 48 hrs by SRB assay; conditions: NCI-H522, 48 h, read-out: Activity
[34] = tested on: CCRF-CEM; assay: Growth inhibition of human CCRF-CEM cells assessed as cell growth at 10 uM after 48 hrs by SRB assay; conditions: read-out: Activity
[35] = tested on: DU-145; assay: Growth inhibition of human DU145 cells assessed as cell growth at 10 uM after 48 hrs by SRB assay; conditions: DU-145, 48 h, read-out: Activity
[36] = read-out: LC50 (the source's name)
[37] = read-out: pLC50 (the source's name) (converted)

Compound `CNC(=O)NC[C@H]1O[C@@H](n2cnc3c(NC(=O)Nc4ccccc4)ncnc32)[C@H](O[Si](C)(C)C(C)(C)C)[C@@H]1CC(=O)N(C)OC` has a growth at 1 µM [1] of 88%, a growth at 100 µM [2] of 54% and a growth at 10 µM [3] of 100%. For the same compound, the growth at 0.1 µM [4] was 102%, the growth at 10 µM [5] was 95% and the GI50 ([6]; read-out: GI50) was 5.37 µM. The CC50 [6, 36] was greater than 100 µM, the TGI ([6]; read-out: TGI) was greater than 100 µM and the GI50 ([6]; read-out: pGI50 (converted)) was 5.37 µM. For the same compound, the CC50 [6, 37] was greater than 100 µM, the TGI ([6]; read-out: pTGI (converted)) was greater than 100 µM and the growth at 1 µM [7] was 97%. The growth at 100 µM [8] was 27%, the growth at 100 µM [9] was 26% and the growth at 1 µM [10] was 104%. The growth at 1000 µM [11] was 49%, the growth at 10 µM [12] was 93% and the growth at 0.1 µM [13] was 97%. The growth at 1000 µM [14] was 1%, the growth at 1 µM [15] was 97% and the growth at 1000 µM [16] was 22%. The growth at 0.1 µM [17] was 97%, the growth at 10 µM [18] was 86% and the GI50 ([19]; read-out: GI50) was 52.7 µM. It also gave a CC50 [19, 36] greater than 100 µM, a TGI ([19]; read-out: TGI) greater than 100 µM and a GI50 ([19]; read-out: pGI50 (converted)) of 52.5 µM. The CC50 [19, 37] was greater than 100 µM, the TGI ([19]; read-out: pTGI) was greater than 100 µM and the growth at 1000 µM [20] was -16%. It also gave a growth at 1000 µM [21] of 17%, a growth at 0.1 µM [22] of 106% and a growth at 100 µM [23] of 71%. It also gave a growth at 1000 µM [24] of 12%, a growth at 0.1 µM [25] of 95% and a GI50 ([26]; read-out: GI50) of 41.9 µM. The CC50 [26, 36] was greater than 100 µM, the TGI ([26]; read-out: TGI) was greater than 100 µM and the GI50 ([26]; read-out: pGI50 (converted)) was 41.7 µM. The CC50 [26, 37] was greater than 100 µM, the TGI ([26]; read-out: pTGI (converted)) was greater than 100 µM and the growth at 100 µM [27] was 76%. For the same compound, the GI50 ([28]; read-out: GI50) was 53.8 µM, the CC50 [28, 36] was greater than 100 µM and the TGI ([28]; read-out: TGI) was greater than 100 µM. The GI50 ([28]; read-out: pGI50 (converted)) was 53.7 µM, the CC50 [28, 37] was greater than 100 µM and the TGI ([28]; read-out: pTGI (converted)) was greater than 100 µM. The growth at 0.1 µM [29] was 96%, the growth at 0.1 µM [30] was 99% and the growth at 100 µM [31] was 51%. It also gave a growth at 100 µM [32] of 44%, a growth at 100 µM [33] of 51% and a growth at 10 µM [34] of 96%. It also gave a growth at 10 µM [35] of 104%.
